pIC50: −log10 of the molar value. Read-outs that look alike come from different tables or passages of the source.
Experiments:
BRD4-BD1 = molecular target: T1, BRD4-BD1 (Homo sapiens, UniProt O60885); experiment: BRD4 AlphaScreen determination (BD1); type: binding
T1 construct: purchased ReactionBiologyCorp; (RBC)
Description: (§1) (1) 1× Assay buffer was prepared according to the kit requirements of ReactionBiologyCorp. (RBC). (2) Compound concentration gradient preparation: the test compounds were tested at final concentrations starting at 10 μM, with 10 concentrations at 3-fold dilution and single well test was set for each concentration. The positive control compound(+)-JQ-1 was tested at final concentrations starting at 1 μM, with 10 concentrations at 3-fold dilution, and duplicated well test was set for each concentration. The solution was gradient diluted to the corresponding 1000-fold final concentration in a 384-well Source plate, and then 20 nL of the solution was transferred to the 384-well reaction plate with Echo550 to be measured. 20 nL of 100% DMSO was transferred to the Max well, and the highest concentration of the positive compounds were transferred to the Min wells. […] (6) 5 μL of 4× peptide solution was added to each well of the reaction plate, centrifuged at 1000 rpm for 1 min. (7) 10 μL of the assay solution was added, centrifuged at 1000 rpm for 60 seconds, the solution was mixed with gentle shaking, and incubated at room temperature for 60 minutes. (8) Reading with EnVision. (9) The IC50 values of the compounds for protein binding inhibition was obtained by fitting the dose-effect curve with the analytical software GraphPad Prism 5. (See Table 1 for specific values)

BRD4-BD2 = molecular target: T2, BRD4-BD2 (Homo sapiens, UniProt O60885); experiment: BRD4 AlphaScreen determination (BD2); type: binding
T2 construct: purchased ReactionBiologyCorp; (RBC)
Description: as §1

[1] = system: most AML cell lines and prostate cancer cell lines; experiment: Proliferation inhibition of different cell lines: AML and prostate cancer lines; type: cell-based; conditions: read-out: proliferation inhibitory activity IC50
Description: (§2) The proliferation inhibitory activity of some of the embodiment compounds against different cell lines such as LNCAP (+R1881), SKM-1, 22RV1, DU145, MOLM13, MDA-PCA-2b, KASUMI 1, THP-1, KG-1, IEC6, H1299, etc., was tested using similar methods in test embodiment 2 and in the literature.

H1299 = experiment: Proliferation inhibition of H1299 cells; type: cell-based; conditions: Homo sapiens, NCI-H1299; H1299 cell line; read-out: proliferation inhibitory activity IC50
Description: as §2

CYP1A2 = molecular target: T3, CYP1A2 (Homo sapiens, UniProt P05177); experiment: Direct inhibition test (DI test) in human liver microsomes, CYP1A2; type: in vitro ADME; conditions: read-out: inhibitory IC50 on CYP1A2
T3 construct: human liver microsomes (final concentration was 0.2 mg/mL); from tissue; host or cells: human liver microsomes
T3 sequence (P05177 1-516): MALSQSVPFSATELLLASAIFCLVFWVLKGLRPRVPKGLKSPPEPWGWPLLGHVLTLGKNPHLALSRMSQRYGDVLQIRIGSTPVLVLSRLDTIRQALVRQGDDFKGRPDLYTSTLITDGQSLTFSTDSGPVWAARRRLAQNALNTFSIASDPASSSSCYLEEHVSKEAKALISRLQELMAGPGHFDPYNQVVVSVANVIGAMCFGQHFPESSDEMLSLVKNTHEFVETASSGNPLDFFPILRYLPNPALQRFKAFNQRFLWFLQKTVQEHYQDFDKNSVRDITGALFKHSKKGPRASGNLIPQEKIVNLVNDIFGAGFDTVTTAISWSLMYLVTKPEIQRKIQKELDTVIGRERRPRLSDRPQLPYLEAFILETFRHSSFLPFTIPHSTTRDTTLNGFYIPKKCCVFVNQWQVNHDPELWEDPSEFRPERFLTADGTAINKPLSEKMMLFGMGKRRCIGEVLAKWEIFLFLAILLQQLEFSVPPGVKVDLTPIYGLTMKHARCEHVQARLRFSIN
Description: (§3) (2) Direct inhibition test (DI test): 1004 of human liver microsomes (final concentration was 0.2 mg/mL) system was subjected to inhibition incubation directly, the system contains NADPH (final concentration was 1 mM), 10 μM compound, positive inhibitor cocktail (ketoconazole 10 μM, quinidine 10 μM, sulfapyrazole 100 μM, a-naphthoflavone 10 μM, tranylcypromine […]), negative control (0.1% DMSO BPS) and mixed probe substrate (midazolam 1004, testosterone 10004, dextromethorphan 10 μM, diclofenac 20 μM, phenacetin 100 μM, mephenytoin 100 μM), the reaction was terminated after incubation for 20 min. The relative enzyme activity was calculated by measuring the relative production of metabolites.

CYP2C8 = molecular target: T4, CYP2C8 (Homo sapiens, UniProt P10632); experiment: Direct inhibition test (DI test) in human liver microsomes, CYP2C8; type: in vitro ADME; conditions: read-out: inhibitory IC50 on CYP 2C8
T4 sequence (P10632 1-490): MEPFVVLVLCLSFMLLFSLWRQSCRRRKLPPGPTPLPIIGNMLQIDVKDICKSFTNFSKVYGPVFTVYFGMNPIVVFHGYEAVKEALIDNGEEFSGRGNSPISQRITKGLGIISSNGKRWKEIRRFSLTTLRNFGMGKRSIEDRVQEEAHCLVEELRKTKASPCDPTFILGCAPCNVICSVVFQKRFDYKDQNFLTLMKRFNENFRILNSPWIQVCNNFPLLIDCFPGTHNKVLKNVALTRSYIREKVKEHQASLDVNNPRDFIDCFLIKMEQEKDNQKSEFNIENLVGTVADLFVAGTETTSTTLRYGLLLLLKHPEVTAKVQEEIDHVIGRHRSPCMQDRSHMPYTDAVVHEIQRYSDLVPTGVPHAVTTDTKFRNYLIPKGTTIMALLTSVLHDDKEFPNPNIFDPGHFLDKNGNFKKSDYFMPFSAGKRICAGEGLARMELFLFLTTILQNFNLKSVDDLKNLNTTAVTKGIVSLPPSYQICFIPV
Description: as §3

CYP3A4 = molecular target: T5, CYP3A4 (Homo sapiens, UniProt P08684); experiment: Direct inhibition test (DI test) in human liver microsomes, CYP3A4; type: in vitro ADME; conditions: read-out: inhibitory IC50 on CYP 3A4
T5 construct: human liver microsomes (final concentration was 0.2 mg/mL); from tissue; host or cells: human liver microsomes
T5 sequence (P08684 whole entry): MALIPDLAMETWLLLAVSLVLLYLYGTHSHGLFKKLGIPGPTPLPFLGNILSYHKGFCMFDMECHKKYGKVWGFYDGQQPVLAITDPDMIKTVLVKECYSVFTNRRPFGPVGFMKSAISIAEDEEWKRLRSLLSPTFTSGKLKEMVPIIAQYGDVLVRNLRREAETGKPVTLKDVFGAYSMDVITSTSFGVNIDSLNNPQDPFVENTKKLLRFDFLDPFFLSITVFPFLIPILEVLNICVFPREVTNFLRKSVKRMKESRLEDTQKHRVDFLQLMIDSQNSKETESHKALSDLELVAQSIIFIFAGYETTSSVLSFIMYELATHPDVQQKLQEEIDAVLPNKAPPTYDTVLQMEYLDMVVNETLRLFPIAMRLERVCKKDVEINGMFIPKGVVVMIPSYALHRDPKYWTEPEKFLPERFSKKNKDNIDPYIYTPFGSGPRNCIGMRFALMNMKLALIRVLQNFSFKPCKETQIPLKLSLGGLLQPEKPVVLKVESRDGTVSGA
Description: as §3

[2] = In vivo pharmacokinetics in beagle dogs; conditions: dog, plasma, po, gavage, 10 mg/kg
[3] = system: MV 4-11 transplanted tumor; experiment: Growth inhibition of MV 4-11 transplanted tumor in nude mice; type: in vivo; conditions: for inhibitory rate (growth of transplanted tumor): dose of 15 mpk, oral, daily; for tolerability in experimental animals / tumor inhibitory effect: higher doses, 50 mg/kg-100 mg/kg
Description: The tumor tissue in vigorous growth stage was cut into about 1.5 mm^3 and inoculated subcutaneously in the right armpit of nude mice under sterile conditions. The diameter of subcutaneous transplanted tumor in nude mice was measured with vernier caliper, and the animals were randomly divided into groups when the average tumor volume was about 130 mm^3. […] During the whole experiment, the diameter of the transplanted tumor was measured twice a week, and the weight of mice was weighed at the same time. The calculation formula of tumor volume (TV) was: TV=½×a×b^2, wherein a and b represent the length and width respectively. The relative tumor volume (RTV) was calculated according to the measurement results, and the calculation formula was: RTV=VT/v0. Wherein VO is the tumor volume measured during the administration in cage (i.e., d0), and Vt is the tumor volume at each measurement.

SMILES	pIC50 (BRD4-BD1; AlphaScreen, protein binding inhibition, read-out: BRD4-BD1 IC50)	pIC50 (BRD4-BD2; AlphaScreen, protein binding inhibition, read-out: BRD4-BD2 IC50)	pIC50 [1]	pIC50 (H1299)	pIC50 (CYP1A2)	IC50 at 20 min (CYP2C8) [µM]	pIC50 (CYP3A4)	AUC [2] [µM·h]	Cmax [2] [nM]	half-life [2] [min]	inhibitory rate (growth of transplanted tumor) [3] [%]	tolerability in experimental animals [3]	tumor inhibitory effect [3]	pIC50 (BRD4-BD1)	pIC50 (BRD4-BD2)
Cc1cc(F)cc(C)c1Oc1ccc(C(C)(C)O)cc1-c1cn(C)c(=O)c2cc(C(=O)NC3CC(F)(F)C3)[nH]c12 [Embodiment 18, N-(3,3-difluorocyclobutyl)-7-(2-(4-fluoro-2,6-dimethylphenoxy)-5-(2-hydroxyprop-2-yl)phenyl)-5-methyl-4-oxo-4,5-dihydro-1H-pyrrolo[3,2-c] pyridine-2-amide]	6.93	> 9.30	> 6.00	< 6.00	< 4.82	> 15	< 4.82	> 15	2000	> 120	82	tolerate it well	obvious	–	–
CCNC(=O)c1cc2c(=O)n(C)cc(-c3cc(C(C)(C)O)ccc3Oc3c(C)cc(F)cc3C)c2[nH]1 [compound 1, reference compound]	–	–	> 6.00	< 6.00	< 4.82	> 15	< 4.82	> 15	2000	> 120	82	tolerate it well	obvious	7.40	9.19
